Measurements: publication PMC10047683, “A Novel Family of Lysosomotropic Tetracyclic Compounds for Treating Leukemia” (Cancers, 2023)

Legend:
[1] = tested on: intracellular calcium in HL60 cells; assay: Calcium mobilization assay (Fura2 probe); assay type: cell-based; details: 10 µM EDK-87/EDK-88, 50 µM chloroquine
Protocol: 1,000 cells of AML cell lines or 50,000 primary cells (both AML and lin-depleted UCB) were treated at the indicated concentration for 18 h, and cultured in 1 mL of MethoCult H4034 Optimum (StemCell Technologies, Vancouver, BC, Canada).
Colonies were screened based on morphology and cellularity at day 7 (cell lines) […]
Calcium mobilization assay
1 x 10^6 cells per mL were loaded for 30’ at 37 °C with the Fura-2-AM probe (Thermo Fisher) at a final 2 µM concentration in pre-warmed calcium- and magnesium-free Hanks BSA solution. Cells were then washed and resuspended in Hanks BSA solution with calcium and magnesium at 3 x 10^5 cells per mL. In parallel, 50µL of drugs in Hanks BSA solution with calcium and magnesium were added to 96-well black wall clear bottom plates and background fluorescence […]
Cells were then added to the plate
(50µL/well) and fluorescence was acquired at indicated timepoints using a Synergy HT Multi-Detection Microplate Reader (BioTek). For the analysis, all values were subtracted their corresponding background fluorescence, and the ratio 340/380 was calculated. Finally, ratios were normalized to vehicle-treated […]
Semi-Quantitative Real Time PCR

MonoMac1 AML cells = assay: MonoMac1 AML xenograft, bone-marrow engraftment; assay type: in vivo, NSG mice; details: 30 mg/kg IP, 10 consecutive days; engraftment at Day 12
Protocol: We myeloablated 6–8-week-old NOD.Cg-Prkdc^scid Il2rg^tm1Wjl/SzJ (NSG, Jackson Laboratories) mice with busulfan (30 mg/kg IP) at Day 0. The next day, mice were transplanted with KG1 (10 million cells per mouse) or MonoMac1 (1 million per mouse) AML cells that had previously been transduced with luciferase-containing plasmid pLL-EF1a-rFLuc-T2A-GFP (Systems Bioscience #LL410PA-1) and left untreated for 3 (MonoMac1) or 5 days (KG1). For IP administration, compounds were dissolved in DMSO and diluted in saline prior to injection. For SC treatments, drugs were solubilized using Tween 80 (Escuder) and high-viscosity carboxymethylcellulose (CMC, Merck). For bioluminescence detection, mice were SC-administered 150 mg/kg Xenolight D-luciferin potassium salt luminescent substrate (Perkin Elmer), and the luminescence of isoflurane-anesthetized mice was acquired after 10 min in an IVIS Lumina II imaging device (Perkin Elmer) at adequate acquisition times (2 min for MonoMac-1, 30 s for KG1). The following quantitation and analysis were conducted with Aura Imaging software (Spectral Instruments Imaging). The last day of the experiment, mice were culled, and tibias and femurs were harvested. Engraftment was determined as the percentage of live human CD45-expressing cells in the bone marrow as assessed with flow cytometry. […]

ADME-Tox: solubility = assay type: physicochemical
Protocol: All ADMET studies were performed in Eurofins Discovery Services (CEREP laboratories, Celle-Lévescault France). The pharmacokinetic studies were performed in Draconis Pharma SL (Barcelona, Spain) in CD-1 mice treated with 30 mg/kg EDK87 or EDK88 via SC or OG. Blood was collected by cardiac puncture at 0.5, 1, 2, 4, or 24 h.

[2] = tested on: peripheral blood mononuclear cells from healthy donors' buffy coats; assay: Cytotoxicity in healthy donor blood cells; assay type: cell-based, human; details: 72 h
Description: Primary AML samples were obtained at diagnosis from patients diagnosed at Hospital Clínic of Barcelona (Spain) and Hospital Germans Trias i Pujol (Badalona, Spain). AML diagnosis, classification, and risk stratification were based on the latest revised WHO criteria (Supplementary Table S1). Clinical characteristics of AML patients are summarized in Supplementary Table S1. Mononuclear cells (MNCs) were isolated with Ficoll density gradient centrifugation (GE Healthcare, Chicago, IL, USA). All patients provided their written informed consent in accordance with the Declaration of Helsinki, and the study was approved by the corresponding ethics committees. Mature blood MNCs were isolated from healthy donors’ buffy coats provided by Banc de Sang i Teixits (BSiT, Barcelona, Spain). Umbilical-cord blood was provided by BSiT, and MNCs were depleted for lineage marker-positive cells using magnetic separation with the Human Lineage Cell Depletion kit (Miltenyi Biotec, North Rhine-Westphalia, Germany) following the manufacturer’s recommendations.
First, 2 × 10^5 (72 h assays in cell lines (Supplementary File S1)), 3 × 10^5 (48 h assays in cell lines) or 7.5 × 10^5 (primary AML, healthy donor buffy coats) cells per mL were cultured in 96-well plates, and all drugs were added at the indicated concentrations. In α-tocopherol experiments, cells were treated with growing concentrations of α-tocopherol and EDK drugs for 48 h. In the NAC and 3MA experiments, treatment was simultaneous with EDK compounds. In glucose deprivation experiments, cells were cultivated with a standard medium (glucose high, 2 g/L), a standard medium without glucose, or a standard medium with galactose (2 g/L) and without glucose. Cell viability was measured via 7-AAD (eBioscience) exclusion and Hoechst33342 (Sigma-Aldrich, St. Louis, MO, USA) positivity staining via flow cytometry, and the cell count was obtained through volume. In the experiments with the primary cells, analyses were performed inside the blast population as detected via blast gates (CD45^low SSC^int). For solid tumor cell lines, viability was analyzed using CellTiter-Glo® Luminescent Cell Viability Assay (Promega).

TFEB = TFEB promoter-luciferase reporter; assay type: cell-based; details: HEK293T; 10 and 20 µM, 24 h
Protocol: We transfected 2.5 × 10^5 HEK-293T cells per condition using the jetPEI DNA transfection reagent (Polyplus) with TFEB promoter-luciferase reporter Addgene#66801. Then, at 24 h post-transfection, cells were treated at the indicated conditions, and the 48 h post-transfection luminescence of lysed cells was analyzed according to the manufacturer’s specifications.

Q: With `CN1CCC(=C2c3ccccc3-c3c2sc2ccccc32)CC1` [EDK-87] as the compound, how does the intracellular calcium mobilization [1] read?
A: Its intracellular calcium mobilization is “few changes in calcium release”.

Q: What about the “reduced the leukemic burden in the bone marrow” value (MonoMac1 AML cells) of the same compound?
A: Its value is 58.44%.

Q: What about the “solubility as compared to EDK-88” value (ADME-Tox: solubility) of the same compound?
A: The value was “lower”.

Q: What about the “healthy-donor blood cells affected” value ([2]; 9 healthy donors, EDK-87 10 and 25 µM, EDK-88 5 and 10 µM assayed) of the same compound?
A: Its value is 33.2% ± 8.1.

Q: And the # Live cells refer to control ([2]; BC sample #20, 5 µM)?
A: Its # Live cells refer to control is 140%.

Q: And the # Live cells refer to control ([2]; BC sample #20, 10 µM)?
A: Its # Live cells refer to control is 113%.

Q: What about the # Live cells refer to control ([2]; BC sample #26, 5 µM) of the same compound?
A: The # Live cells refer to control was 78%.

Q: What about the # Live cells refer to control ([2]; BC sample #26, 10 µM) of the same compound?
A: The # Live cells refer to control was 65%.

Q: What about the # Live cells refer to control ([2]; BC sample #31, 5 µM) of the same compound?
A: The # Live cells refer to control was 83%.

Q: What about the # Live cells refer to control ([2]; BC sample #31, 10 µM) of the same compound?
A: Its # Live cells refer to control is 56%.

Q: And the # Live cells refer to control ([2]; BC sample #32, 5 µM)?
A: The # Live cells refer to control was 81%.

Q: And the # Live cells refer to control ([2]; BC sample #32, 10 µM)?
A: Its # Live cells refer to control is 41%.

Q: And the # Live cells refer to control ([2]; BC sample #32, 25 µM)?
A: The # Live cells refer to control was 72%.

Q: What about the # Live cells refer to control ([2]; BC sample #41, 5 µM) of the same compound?
A: The # Live cells refer to control was 77%.

Q: And the # Live cells refer to control ([2]; BC sample #41, 10 µM)?
A: The # Live cells refer to control was 87%.

Q: What about the # Live cells refer to control ([2]; BC sample #44, 5 µM) of the same compound?
A: Its # Live cells refer to control is 74%.

Q: What about the # Live cells refer to control ([2]; BC sample #44, 10 µM) of the same compound?
A: The # Live cells refer to control was 76%.

Q: And the # Live cells refer to control ([2]; BC sample #44, 25 µM)?
A: The # Live cells refer to control was 80%.

Q: What about the # Live cells refer to control ([2]; BC sample #51, 5 µM) of the same compound?
A: The # Live cells refer to control was 101%.

Q: And the # Live cells refer to control ([2]; BC sample #51, 10 µM)?
A: The # Live cells refer to control was 77%.

Q: What about the # Live cells refer to control ([2]; BC sample #59, 5 µM) of the same compound?
A: The # Live cells refer to control was 89%.

Q: And the # Live cells refer to control ([2]; BC sample #59, 10 µM)?
A: Its # Live cells refer to control is 41%.

Q: And the # Live cells refer to control ([2]; BC sample #59, 25 µM)?
A: The # Live cells refer to control was 13%.

Q: And the # Live cells refer to control ([2]; BC sample #63, 5 µM)?
A: Its # Live cells refer to control is 92%.

Q: What about the # Live cells refer to control ([2]; BC sample #63, 10 µM) of the same compound?
A: Its # Live cells refer to control is 45%.

Q: What about the # Live cells refer to control ([2]; BC sample #63, 25 µM) of the same compound?
A: The # Live cells refer to control was 22%.

Q: And the “TFEB activity (reporter)” value (TFEB)?
A: Its value is “activation of TFEB activity”.
